Experimental data: patent US6737383B1, “Herbicidal oxadiazolidines” (priority 1999, dated 2004)

How the values were obtained:
blackgrass [1] = test: Test E blackgrass; assay type: in vivo, Alopecurus myosuroides; details: Preemergence
Italian ryegrass = test: Test E Italian ryegrass; assay type: in vivo, Lolium multiflorum; details: Preemergence
green foxtail = test: Test E green foxtail; assay type: in vivo, Setaria viridis; details: Preemergence
winter barley = test: Test E winter barley; assay type: in vivo, Hordeum vulgare; details: Preemergence
wheat = test: Test B pre/postemergence wheat; assay type: in vivo, Triticum aestivum
In short: (§1)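 Test chemicals in a non-phytotoxic solvent mixture with surfactant were sprayed preemergence onto planted seeds and postemergence onto plants 2 to 18 cm tall (1- to 4-leaf stage). After twelve to sixteen days in a greenhouse, injury was visually rated against untreated controls from 0 (no effect) to 10 (complete control).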

winter wheat [2] = test: Test E winter wheat; assay type: in vivo, Triticum aestivum; details: Preemergence
winter wheat [3] = test: Test E winter wheat; assay type: in vivo, Triticum aestivum; details: Postemergence
In short: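 Greenhouse test: compounds in non-phytotoxic solvent with surfactant; for postemergence, sprayed on plants at 1- to 4-leaf stage grown in 60:40 sandy loam/potting mix. Injury rated visually against untreated controls after about 21 to 28 days.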

velvetleaf = test: Test B pre/postemergence velvetleaf; assay type: in vivo, Abutilon theophrasti
In short: as §1

blackgrass [4] = test: Test B pre/postemergence blackgrass; assay type: in vivo, Alopecurus myosuroides
In short: as §1

bedstraw = test: Test B pre/postemergence bedstraw; assay type: in vivo, Galium aparine
In short: as §1

wild oat = test: Test E wild oat; assay type: in vivo, Avena fatua; details: Preemergence
[5] = Rate 500 g/ha, 0 to 100 scale where 0 is no effect and 100 is complete control
[6] = Preemergence, Rate 62 g/ha, scale of 0 to 10 where 0 is no effect and 10 is complete control
[7] = Preemergence, Rate 250 g/ha, scale of 0 to 10 where 0 is no effect and 10 is complete control
[8] = Preemergence, Rate 500 g/ha, scale of 0 to 10 where 0 is no effect and 10 is complete control
[9] = Rate 125 g/ha, Postemergence, scale of 0 to 10 where 0 is no effect and 10 is complete control
[10] = Rate 125 g/ha, Preemergence, scale of 0 to 10 where 0 is no effect and 10 is complete control
[11] = Rate 250 g/ha, Postemergence, scale of 0 to 10 where 0 is no effect and 10 is complete control
[12] = Rate 500 g/ha, Postemergence, scale 0 to 10, 0 no effect, 10 complete control
[13] = Rate 250 g/ha, 0 to 100 scale where 0 is no effect and 100 is complete control
[14] = Rate 500 g/ha, 0 to 100 scale, 0 is no effect, 100 is complete control
[15] = Rate 62 g/ha, Postemergence, scale of 0 to 10 where 0 is no effect and 10 is complete control
[16] = Rate 500 g/ha, 0 to 100 scale (0 no effect, 100 complete control)
[17] = Rate 1000 g/ha, 0 to 100 scale, 0 no effect, 100 complete control
[18] = Postemergence, Rate 125 g/ha, scale 0 to 10, 0 is no effect, 10 is complete control
[19] = Rate 62 g/ha, Postemergence, scale 0 to 10 (0 no effect, 10 complete control)
[20] = Rate 62 g/ha, 0 to 100 scale, 0 no effect, 100 complete control
[21] = Rate 125 g/ha, 0 to 100 scale (0 no effect, 100 complete control)
[22] = Preemergence, Rate 125 g/ha, 0 is no effect, 10 is complete control
[23] = Preemergence, Rate 250 g/ha, scale 0 to 10, 0 is no effect, 10 is complete control
[24] = Preemergence, Rate 500 g/ha, scale 0 to 10 (0 no effect, 10 complete control)
[25] = Rate 250 g/ha, Postemergence, scale 0 to 10, 0 is no effect, 10 is complete control
[26] = Rate 500 g/ha, Postemergence, scale 0 to 10
[27] = Postemergence, Rate 125 g/ha, scale of 0 to 10 where 0 is no effect and 10 is complete control

CC(C)N(C(=O)n1oc(=O)n(Cc2ccccn2)c1=O)c1ccc(F)cc1 [Compound 267]
Blackgrass plant response rating (0 to 100 scale) (blackgrass [1]; Rate 250 g/ha): 50 | Plant response rating, Blackgrass (blackgrass [1]; [5]): 60 | I. Ryegrass plant response rating (0 to 100 scale) (Italian ryegrass; Rate 250 g/ha): 50 | Plant response rating, I. Ryegrass (Italian ryegrass; [5]): 50 | Green foxtail plant response rating (0 to 100 scale) (green foxtail; Rate 250 g/ha): 100 | Plant response rating, Green foxtail (green foxtail; [5]): 100 | Barley (winter) plant response rating (0 to 100 scale) (winter barley; Rate 250 g/ha): 30 | Plant response rating, Barley (winter) (winter barley; [5]): 70 | Wheat plant response rating (wheat; [6]): 0 | Wheat plant response rating (wheat; [7]): 0 | Plant response rating, Wheat (wheat; [8]): 0 | Wheat plant response rating (wheat; [9]): 0 | Wheat plant response rating (wheat; [10]): 0 | Plant response rating, Wheat (wheat; [11]): 3 | Wheat plant response rating (wheat; [12]): 4 | Wheat (winter) plant response rating (0 to 100 scale) (winter wheat [2]; Rate 250 g/ha): 55 | Plant response rating, Wheat (winter) (winter wheat [2]; [5]): 70 | Wheat (winter) plant response rating (winter wheat [3]; [13]): 70 | Plant response rating, Wheat (winter) (winter wheat [3]; [14]): 70 | Velvetleaf plant response rating (velvetleaf; [6]): 0 | Velvetleaf plant response rating (velvetleaf; [7]): 0 | Plant response rating, Velvetleaf (velvetleaf; [8]): 3 | Velvetleaf plant response rating (velvetleaf; [9]): 0 | Velvetleaf plant response rating (velvetleaf; [10]): 0 | Plant response rating, Velvetleaf (velvetleaf; [11]): 1 | Velvetleaf plant response rating (velvetleaf; [12]): 3 | Blackgrass plant response rating (blackgrass [4]; [6]): 0 | Blackgrass plant response rating (blackgrass [4]; [7]): 2 | Plant response rating, Blackgrass (blackgrass [4]; [8]): 8 | Blackgrass plant response rating (blackgrass [4]; [15]): 0 | Blackgrass plant response rating (blackgrass [4]; [9]): 0 | Blackgrass plant response rating (blackgrass [4]; [10]): 2 | Plant response rating, Blackgrass (blackgrass [4]; [11]): 5 | Blackgrass plant response rating (blackgrass [4]; [12]): 8 | Bedstraw plant response rating (bedstraw; [6]): 0 | Bedstraw plant response rating (bedstraw; [7]): 0 | Plant response rating, Bedstraw (bedstraw; [8]): 2 | Bedstraw plant response rating (bedstraw; [15]): 0 | Bedstraw plant response rating (bedstraw; [9]): 0 | Bedstraw plant response rating (bedstraw; [10]): 0 | Plant response rating, Bedstraw (bedstraw; [11]): 4 | Bedstraw plant response rating (bedstraw; [12]): 7 | Wild oat plant response rating (0 to 100 scale) (wild oat; Rate 250 g/ha): 55 | Plant response rating, Wild oat (wild oat; [5]): 70

CC(C)N(C(=O)n1oc(=O)n(C2CC3CCC2C3)c1=O)c1ccccc1 (stereo not drawn) [Compound 328]
Plant response rating, Blackgrass (blackgrass [1]; Rate 250 g/ha, 0 to 100 scale): 50 | Plant response rating, Blackgrass (blackgrass [1]; [16]): 50 | Plant response rating, Blackgrass (blackgrass [1]; [17]): 40 | Plant response rating, I. Ryegrass (Italian ryegrass; Rate 250 g/ha, 0 to 100 scale): 65 | Plant response rating, I. Ryegrass (Italian ryegrass; [16]): 60 | Plant response rating, I. Ryegrass (Italian ryegrass; [17]): 70 | Plant response rating, Green foxtail (green foxtail; Rate 250 g/ha, 0 to 100 scale): 100 | Plant response rating, Green foxtail (green foxtail; [16]): 85 | Plant response rating, Green foxtail (green foxtail; [17]): 100 | Plant response rating, Barley (winter) (winter barley; Rate 250 g/ha, 0 to 100 scale, 0 no effect, 100 complete control): 40 | Plant response rating, Barley (winter) (winter barley; [16]): 50 | Plant response rating, Barley (winter) (winter barley; [17]): 70 | Plant response rating, Wheat (wheat; [18]): 0 | Wheat plant response rating (wheat; [6]): 0 | Wheat plant response rating (0 to 10 scale) (wheat; Preemergence, Rate 125 g/ha): 0 | Wheat plant response rating (wheat; [7]): 0 | Wheat plant response rating (wheat; [8]): 0 | Wheat plant response rating (wheat; [19]): 0 | Plant response rating, Wheat (wheat; [11]): 0 | Plant response rating, Wheat (wheat; [12]): 0 | Plant response rating, Wheat (winter) (winter wheat [2]; Rate 250 g/ha, 0 to 100 scale): 40 | Plant response rating, Wheat (winter) (winter wheat [2]; [16]): 70 | Plant response rating, Wheat (winter) (winter wheat [2]; [17]): 70 | Plant response rating, Wheat (winter) (winter wheat [3]; Rate 250 g/ha, 0 to 100 scale, 0 is no effect, 100 is complete control): 65 | Plant response rating, Wheat (winter) (winter wheat [3]; Rate 1000 g/ha, 0 to 100 scale where 0 is no effect and 100 is complete control): 80 | Plant response rating, Wheat (winter) (winter wheat [3]; [14]): 70 | Plant response rating, Velvetleaf (velvetleaf; [18]): 0 | Velvetleaf plant response rating (velvetleaf; [6]): 0 | Velvetleaf plant response rating (0 to 10 scale) (velvetleaf; Preemergence, Rate 125 g/ha): 0 | Velvetleaf plant response rating (velvetleaf; [7]): 0 | Velvetleaf plant response rating (velvetleaf; [8]): 0 | Velvetleaf plant response rating (velvetleaf; [19]): 0 | Plant response rating, Velvetleaf (velvetleaf; [11]): 0 | Plant response rating, Velvetleaf (velvetleaf; [12]): 0 | Plant response rating, Blackgrass (blackgrass [4]; [18]): 1 | Blackgrass plant response rating (blackgrass [4]; [6]): 0 | Blackgrass plant response rating (0 to 10 scale) (blackgrass [4]; Preemergence, Rate 125 g/ha): 0 | Blackgrass plant response rating (blackgrass [4]; [7]): 4 | Blackgrass plant response rating (blackgrass [4]; [8]): 7 | Blackgrass plant response rating (blackgrass [4]; [19]): 0 | Plant response rating, Blackgrass (blackgrass [4]; [11]): 5 | Plant response rating, Blackgrass (blackgrass [4]; [12]): 5 | Plant response rating, Bedstraw (bedstraw; [18]): 1 | Bedstraw plant response rating (bedstraw; [6]): 0 | Bedstraw plant response rating (0 to 10 scale) (bedstraw; Preemergence, Rate 125 g/ha): 0 | Bedstraw plant response rating (bedstraw; [19]): 0 | Plant response rating, Bedstraw (bedstraw; [11]): 4 | Plant response rating, Wild oat (wild oat; Rate 250 g/ha, 0 to 100 scale): 70 | Plant response rating, Wild oat (wild oat; [16]): 50 | Plant response rating, Wild oat (wild oat; [17]): 60

Cc1nsc(C)c1-n1c(=O)on(C(=O)N(c2ccc(F)cc2F)C(C)C)c1=O [Compound 158]
Plant response rating, Blackgrass (blackgrass [1]; [20]): 10 | Plant response rating, Blackgrass (blackgrass [1]; [21]): 20 | Blackgrass plant response rating (0 to 100 scale) (blackgrass [1]; Rate 250 g/ha): 50 | Plant response rating, Blackgrass (blackgrass [1]; [5]): 50 | Plant response rating, I. Ryegrass (Italian ryegrass; [20]): 10 | Plant response rating, I. Ryegrass (Italian ryegrass; [21]): 20 | I. Ryegrass plant response rating (0 to 100 scale) (Italian ryegrass; Rate 250 g/ha): 50 | Plant response rating, I. Ryegrass (Italian ryegrass; [5]): 50 | Plant response rating, Green foxtail (green foxtail; [20]): 0 | Plant response rating, Green foxtail (green foxtail; [21]): 10 | Green foxtail plant response rating (0 to 100 scale) (green foxtail; Rate 250 g/ha): 20 | Plant response rating, Green foxtail (green foxtail; [5]): 50 | Plant response rating, Barley (winter) (winter barley; [20]): 10 | Plant response rating, Barley (winter) (winter barley; [21]): 20 | Barley (winter) plant response rating (0 to 100 scale) (winter barley; Rate 250 g/ha): 30 | Plant response rating, Barley (winter) (winter barley; [5]): 30 | Wheat plant response rating (wheat; [6]): 0 | Wheat plant response rating (0 to 10 scale) (wheat; [22]): 0 | Wheat plant response rating (wheat; [23]): 0 | Wheat plant response rating (wheat; [24]): 0 | Plant response rating, Wheat (wheat; [25]): 0 | Wheat plant response rating (wheat; [26]): 0 | Plant response rating, Wheat (winter) (winter wheat [2]; [20]): 0 | Plant response rating, Wheat (winter) (winter wheat [2]; [21]): 10 | Wheat (winter) plant response rating (0 to 100 scale) (winter wheat [2]; Rate 250 g/ha): 30 | Plant response rating, Wheat (winter) (winter wheat [3]; Rate 62 g/ha, 0 to 100 scale): 10 | Plant response rating, Wheat (winter) (winter wheat [3]; Rate 125 g/ha, 0 to 100 scale): 15 | Plant response rating, Wheat (winter) (winter wheat [3]; Rate 500 g/ha, 0 to 100 scale, 0 no effect, 100 complete control): 30 | Wheat (winter) plant response rating (winter wheat [3]; [13]): 40 | Velvetleaf plant response rating (velvetleaf; [6]): 0 | Velvetleaf plant response rating (0 to 10 scale) (velvetleaf; [22]): 0 | Velvetleaf plant response rating (velvetleaf; [23]): 0 | Velvetleaf plant response rating (velvetleaf; [24]): 0 | Plant response rating, Velvetleaf (velvetleaf; [25]): 0 | Velvetleaf plant response rating (velvetleaf; [26]): 0 | Blackgrass plant response rating (blackgrass [4]; [27]): 1 | Blackgrass plant response rating (blackgrass [4]; [6]): 0 | Blackgrass plant response rating (0 to 10 scale) (blackgrass [4]; [22]): 0 | Blackgrass plant response rating (blackgrass [4]; [24]): 3 | Blackgrass plant response rating (blackgrass [4]; [15]): 1 | Plant response rating, Blackgrass (blackgrass [4]; [25]): 2 | Blackgrass plant response rating (blackgrass [4]; [26]): 5 | Bedstraw plant response rating (bedstraw; [27]): 0 | Bedstraw plant response rating (bedstraw; [6]): 0 | Bedstraw plant response rating (0 to 10 scale) (bedstraw; [22]): 0 | Bedstraw plant response rating (bedstraw; [23]): 0 | Bedstraw plant response rating (bedstraw; [24]): 0 | Bedstraw plant response rating (bedstraw; [15]): 0 | Plant response rating, Bedstraw (bedstraw; [25]): 0 | Plant response rating, Wild oat (wild oat; [20]): 50 | Plant response rating, Wild oat (wild oat; [21]): 50 | Wild oat plant response rating (0 to 100 scale) (wild oat; Rate 250 g/ha): 50 | Plant response rating, Wild oat (wild oat; [5]): 60
